Measurements taken from the NIST ThermoML archive (doi:10.1016/j.jct.2009.07.006).

Conditions: Liquid, Vibrating tube method

Cc1ccccn1 [2-methylpyridine]
mass density [kg/m3]
Conditions	298.15 K	308.15 K	318.15 K	328.15 K
2130 kPa	941.2	932.1	922.8	913.5
4150 kPa	942.5	933.5	924.3	915.1
6180 kPa	943.9	935	925.8	916.7
8210 kPa	945.3	936.4	927.3	918.3
10230 kPa	946.6	937.8	928.8	919.8
11250 kPa	947.2	938.5	929.5	920.5
12260 kPa	947.9	939.1	930.2	921.3
14290 kPa	949.2	940.5	931.6	922.8
16310 kPa	950.5	941.9	933	924.3
18340 kPa	951.7	943.2	934.4	925.7
20370 kPa	953	944.5	935.8	927.2
22390 kPa	954.2	945.8	937.1	928.6
24420 kPa	955.4	947	938.5	930
26450 kPa	956.6	948.3	939.8	931.4
28470 kPa	957.7	949.5	941.1	932.7
29490 kPa	958.3	950.1	941.7	933.4
30500 kPa	958.9	950.8	942.4	934.1
32520 kPa	960.1	952	943.7	935.4
34550 kPa	961.2	953.2	944.9	936.8
36580 kPa	962.4	954.3	946.1	938
38600 kPa	963.5	955.5	947.3	939.3
39620 kPa	964	956.1	947.9	940

Cc1cccnc1 [3-methylpyridine]
mass density [kg/m3]
Conditions	298.15 K	308.15 K	318.15 K	328.15 K
2130 kPa	953.2	944.3	935.3	926.3
4150 kPa	954.5	945.7	936.7	927.8
6180 kPa	955.8	947.1	938.1	929.2
8210 kPa	957.1	948.4	939.4	930.7
10230 kPa	958.4	949.7	940.9	932.2
11250 kPa	959	950.4	941.6	932.9
12260 kPa	959.6	951	942.3	933.6
14290 kPa	960.8	952.3	943.6	935
16310 kPa	962.1	953.6	944.9	936.4
18340 kPa	963.3	954.8	946.2	937.7
20370 kPa	964.4	956.1	947.5	939.1
22390 kPa	965.6	957.3	948.8	940.4
24420 kPa	966.7	958.5	950.1	941.7
26450 kPa	967.9	959.7	951.3	943.1
28470 kPa	969	960.9	952.6	944.4
29490 kPa	969.6	961.5	953.2	945
30500 kPa	970.1	962	953.8	945.7
32530 kPa	971.2	963.2	955	946.9
34550 kPa	972.3	964.3	956.2	948.2
36580 kPa	973.4	965.4	957.4	949.4
38600 kPa	974.5	966.5	958.5	950.6
39620 kPa	975	967.1	959.1	951.2

Cc1ccncc1 [4-methylpyridine]
mass density [kg/m3]
Conditions	298.15 K	308.15 K	318.15 K	328.15 K
2130 kPa	951.2	942.3	933.3	924.3
4150 kPa	952.5	943.7	934.7	925.8
6180 kPa	953.8	945	936.1	927.3
8210 kPa	955.1	946.4	937.4	928.7
10230 kPa	956.3	947.7	938.9	930.2
11250 kPa	956.9	948.3	939.5	930.9
12260 kPa	957.5	949	940.2	931.6
14290 kPa	958.8	950.3	941.6	933
16310 kPa	960	951.5	942.9	934.4
18340 kPa	961.2	952.8	944.2	935.7
20370 kPa	962.3	954	945.5	937.1
22390 kPa	963.5	955.2	946.7	938.4
24420 kPa	964.6	956.4	948	939.7
26450 kPa	965.8	957.6	949.2	941.1
28470 kPa	966.9	958.8	950.5	942.3
29490 kPa	967.4	959.3	951.1	943
30500 kPa	968	959.9	951.7	943.6
32530 kPa	969.1	961.1	952.9	944.8
34550 kPa	970.2	962.2	954	946.1
36580 kPa	971.3	963.3	955.2	947.3
38600 kPa	972.3	964.4	956.4	948.5
39620 kPa	972.8	965	957	949.1

c1ccncc1 [pyridine]
mass density [kg/m3]
Conditions	298.15 K	308.15 K	318.15 K	328.15 K
2130 kPa	979	969.2	959.3	949.2
4150 kPa	980.4	970.6	960.8	950.7
6180 kPa	981.8	972.1	962.3	952.3
8210 kPa	983.2	973.5	963.7	953.9
10230 kPa	984.5	974.9	965.2	955.4
11250 kPa	985.1	975.6	966	956.2
12260 kPa	985.8	976.3	966.7	956.9
14290 kPa	987.1	977.6	968.1	958.4
16310 kPa	988.3	978.9	969.5	959.9
18340 kPa	989.6	980.3	970.9	961.3
20370 kPa	990.8	981.6	972.2	962.8
22390 kPa	992.1	982.8	973.6	964.2
24420 kPa	993.3	984.1	974.9	965.6
26450 kPa	994.5	985.4	976.2	967
28470 kPa	995.7	986.7	977.6	968.3
29490 kPa	996.3	987.2	978.2	969
30500 kPa	996.9	987.8	978.8	969.7
32530 kPa	998	989	980.1	971
34550 kPa	999.1	990.3	981.4	972.3
36580 kPa	1000.3	991.5	982.6	973.6
38600 kPa	1001.4	992.6	983.8	975
39620 kPa	1002	993.2	984.4	975.6
